Earlier results, collected in article PMC12122562, “Phase 1 studies of the indenoisoquinolines LMP776 and LMP744 in patients with solid tumors and lymphomas” (Cancer Chemotherapy and Pharmacology, 2025).
Read-outs that look alike come from different tables or passages of the source.

How the values were obtained:
advanced solid tumors = test system: advanced solid tumors; parameters: method as in PMID 27169793; conditions: cited from earlier work
[1] = test system: naturally occurring lymphomas; parameters: method as in PMID 30061364; conditions: canines with lymphomas; cited from earlier work
[2] = test system: patients with advanced solid tumors; conditions: cited from earlier work
[3] = test system: PTEN-null glioblastoma cells; parameters: method as in PMID 37706203; conditions: combined with the PARP inhibitor niraparib; cited from earlier work

**Q.** Which results are given for COc1cc2c3c(n(CCCN4CCOCC4)c(=O)c2cc1OC)-c1cc2c(cc1C3=O)OCO2 [LMP400]?
**A.** Best response (advanced solid tumors): stable disease; Responders [1]: 9 of 27; Response rate [1]: 33.3%; Nausea, prevalence [2]: 5%; Alanine aminotransferase increased, patients ([2]; grade 2, n=21, ref 1 (suppl.)): 3; Anemia, patients ([2]; grade 2, n=21, ref 1 (suppl.)): 8; Aspartate aminotransferase increased, patients ([2]; grade 2, n=21, ref 1 (suppl.)): 2; Blood bilirubin increased, patients ([2]; grade 2, n=21, ref 1 (suppl.)): 2; Diarrhea, patients ([2]; grade 2, n=21, ref 1 (suppl.)): 1; Dyspepsia, patients ([2]; grade 2, n=21, ref 1 (suppl.)): 1; Fatigue, patients ([2]; grade 2, n=21, ref 1 (suppl.)): 3; Hyperkalemia, patients ([2]; grade 2, n=21, ref 1 (suppl.)): 1; Hypophosphatemia, patients ([2]; grade 2, n=21, ref 1 (suppl.)): 1; Lethargy, patients ([2]; grade 2, n=21, ref 1 (suppl.)): 1; Lymphocyte count decreased, patients ([2]; grade 2, n=21, ref 1 (suppl.)): 4; Nausea, patients ([2]; grade 2, n=21, ref 1 (suppl.)): 1; Neutropenia, patients ([2]; grade 2, n=21, ref 1 (suppl.)): 1; Weight loss, patients ([2]; grade 2, n=21, ref 1 (suppl.)): 1; White blood cell count decreased, patients ([2]; grade 2, n=21, ref 1 (suppl.)): 1; Anemia, patients ([2]; grade 3, n=21, ref 1 (suppl.)): 2; Fatigue, patients ([2]; grade 3, n=21, ref 1 (suppl.)): 1; Febrile Neutropenia, patients ([2]; grade 3, n=21, ref 1 (suppl.)): 2; Lymphocyte count decreased, patients ([2]; grade 3, n=21, ref 1 (suppl.)): 3; White blood cell count decreased, patients ([2]; grade 3, n=21, ref 1 (suppl.)): 1; Neutropenia, patients ([2]; grade 4, n=21, ref 1 (suppl.)): 3; Platelet count decreased, patients ([2]; grade 4, n=21, ref 1 (suppl.)): 3; White blood cell count decreased, patients ([2]; grade 4, n=21, ref 1 (suppl.)): 2; Cell killing activity in combination [3]: synergistic cell killing activity
